Test results: ChEMBL document CHEMBL3044934, “Design, synthesis, and antiviral evaluation of phenanthrene-based tylophorine derivatives as potential antiviral agents” (2010)

Key:
Assay type in all cases: functional
Tobacco mosaic virus [1] = test: Antiviral activity against Tobacco mosaic virus (TMV) inoculated on whole Nicotiana tabacum leaves followed by smearing with 100 ug/mL compound solution on left side of leaves assessed as viral infection curative effect measured 3 to 4 days post viral infection
Tobacco mosaic virus [2] = test: Antiviral activity against Tobacco mosaic virus (TMV) inoculated on whole Nicotiana tabacum leaves followed by smearing with 500 ug/mL compound solution on left side of leaves assessed as viral infection curative effect measured 3 to 4 days post viral infection
Tobacco mosaic virus [3] = test: Antiviral activity against Tobacco mosaic virus (TMV) pre-treated with 100 ug/mL compound for 30 min followed by inoculation on left side of Nicotiana tabacum leaves assessed as virus inactivation effect measured 3 to 4 days post viral infection
Tobacco mosaic virus [4] = test: Antiviral activity against Tobacco mosaic virus (TMV) pre-treated with 500 ug/mL compound for 30 min followed by inoculation on left side of Nicotiana tabacum leaves assessed as virus inactivation effect measured 3 to 4 days post viral infection
Tobacco mosaic virus [5] = test: Antiviral activity against Tobacco mosaic virus (TMV) inoculated on 100 ug/mL compound smeared Nicotiana tabacum leaves assessed as protective effect against viral infection measured 3 to 4 days post viral infection
Tobacco mosaic virus [6] = test: Antiviral activity against Tobacco mosaic virus (TMV) inoculated on 500 ug/mL compound smeared Nicotiana tabacum leaves assessed as protective effect against viral infection measured 3 to 4 days post viral infection

`COc1cc2cc(CN3CCC[C@H]3CO)c3cc(OC)c(OC)cc3c2cc1OC` gave an Activity (Tobacco mosaic virus [1]) of 13.4%, an Activity (Tobacco mosaic virus [2]) of 34.6% and an Activity (Tobacco mosaic virus [3]) of 36.9%. It also gave an Activity (Tobacco mosaic virus [4]) of 74.2%, an Activity (Tobacco mosaic virus [5]) of 10.4% and an Activity (Tobacco mosaic virus [6]) of 19.2%.

For `COC(=O)[C@@H]1CCCN1C(=O)c1cc2cc(OC)c(OC)cc2c2cc(OC)c(OC)cc12`, the Activity (Tobacco mosaic virus [1]) was 10.6%, the Activity (Tobacco mosaic virus [2]) was 64.6% and the Activity (Tobacco mosaic virus [3]) was 8%. The Activity (Tobacco mosaic virus [4]) was 8.4%, the Activity (Tobacco mosaic virus [5]) was 19.2% and the Activity (Tobacco mosaic virus [6]) was 56.7%.

`COc1cc2cc(CN3CCCCC3C(=O)O)c3cc(OC)c(OC)cc3c2cc1OC` (stereo not drawn) was tested, and the Activity (Tobacco mosaic virus [1]) was 28.9%, the Activity (Tobacco mosaic virus [2]) was 45.1% and the Activity (Tobacco mosaic virus [3]) was 38.7%. The Activity (Tobacco mosaic virus [4]) was 68.9%, the Activity (Tobacco mosaic virus [5]) was 10% and the Activity (Tobacco mosaic virus [6]) was 12.9%.

`COC(=O)C1CCCCN1Cc1cc2cc(OC)c(OC)cc2c2cc(OC)c(OC)cc12` (stereo not drawn) gave an Activity (Tobacco mosaic virus [1]) of 1.2%, an Activity (Tobacco mosaic virus [2]) of 11.8% and an Activity (Tobacco mosaic virus [3]) of 50.2%. It also gave an Activity (Tobacco mosaic virus [4]) of 59.1%, an Activity (Tobacco mosaic virus [5]) of 27.1% and an Activity (Tobacco mosaic virus [6]) of 64.6%.

Compound `COC(=O)C1CCCCN1C(=O)c1cc2cc(OC)c(OC)cc2c2cc(OC)c(OC)cc12` (stereo not drawn) has an Activity (Tobacco mosaic virus [1]) of 4.9%, an Activity (Tobacco mosaic virus [2]) of 17.9% and an Activity (Tobacco mosaic virus [3]) of 4.4%. It also gave an Activity (Tobacco mosaic virus [4]) of 17.3%, an Activity (Tobacco mosaic virus [5]) of 12.5% and an Activity (Tobacco mosaic virus [6]) of 56.3%.

Work on `COc1cc2cc(CN3CCC[C@H]3C(=O)O)c3cc(OC)c(OC)cc3c2cc1OC` yielded an Activity (Tobacco mosaic virus [1]) of 14.2%, an Activity (Tobacco mosaic virus [2]) of 54.1% and an Activity (Tobacco mosaic virus [3]) of 21.3%. The Activity (Tobacco mosaic virus [4]) was 39.6%, the Activity (Tobacco mosaic virus [5]) was 23.3% and the Activity (Tobacco mosaic virus [6]) was 35.4%.

In the case of `COC(=O)[C@@H]1CCCN1Cc1cc2cc(OC)c(OC)cc2c2cc(OC)c(OC)cc12`, the Activity (Tobacco mosaic virus [1]) is reported as 2.9%, the Activity (Tobacco mosaic virus [2]) is reported as 33.7% and the Activity (Tobacco mosaic virus [3]) is reported as 54.7%. For the same compound, the Activity (Tobacco mosaic virus [4]) was 80%, the Activity (Tobacco mosaic virus [5]) was 38.3% and the Activity (Tobacco mosaic virus [6]) was 47.1%.

With `COc1cc2cc(CN3CCCCC3CO)c3cc(OC)c(OC)cc3c2cc1OC` (stereo not drawn) the Activity (Tobacco mosaic virus [1]) was 36.2%, the Activity (Tobacco mosaic virus [2]) was 46.8% and the Activity (Tobacco mosaic virus [3]) was 5.2%. It also gave an Activity (Tobacco mosaic virus [4]) of 8.4%, an Activity (Tobacco mosaic virus [5]) of 4.6% and an Activity (Tobacco mosaic virus [6]) of 21.3%.

With `COc1cc2cc(CN3CCC(O)CC3)c3cc(OC)c(OC)cc3c2cc1OC` the Activity (Tobacco mosaic virus [1]) was 33.7%, the Activity (Tobacco mosaic virus [2]) was 37.4% and the Activity (Tobacco mosaic virus [3]) was 9.3%. For the same compound, the Activity (Tobacco mosaic virus [4]) was 71.1%, the Activity (Tobacco mosaic virus [5]) was 11.3% and the Activity (Tobacco mosaic virus [6]) was 70.8%.

For `COC(=O)CCCCCNC(=O)c1cc2cc(OC)c(OC)cc2c2cc(OC)c(OC)cc12`, the Activity (Tobacco mosaic virus [1]) was 48%, the Activity (Tobacco mosaic virus [2]) was 65.9% and the Activity (Tobacco mosaic virus [3]) was 5.8%. The Activity (Tobacco mosaic virus [4]) was 6.7%, the Activity (Tobacco mosaic virus [5]) was 14.2% and the Activity (Tobacco mosaic virus [6]) was 54.6%.

With `COc1cc2cc(C(=O)NCCCCCCO)c3cc(OC)c(OC)cc3c2cc1OC` the Activity (Tobacco mosaic virus [1]) was 49.6%, the Activity (Tobacco mosaic virus [2]) was 65% and the Activity (Tobacco mosaic virus [3]) was 57.8%. The Activity (Tobacco mosaic virus [4]) was 60.9%, the Activity (Tobacco mosaic virus [5]) was 22.5% and the Activity (Tobacco mosaic virus [6]) was 41.7%.

Work on `CNCC(=O)N[C@@H](CO)C(=O)N[C@H]1[C@H](O)[C@@H](O)[C@H](n2ccc(N)nc2=O)O[C@@H]1C(N)=O` [NINGNANMYCIN] yielded an Activity (Tobacco mosaic virus [1]) of 39%, an Activity (Tobacco mosaic virus [2]) of 47.9% and an Activity (Tobacco mosaic virus [3]) of 48%. The Activity (Tobacco mosaic virus [4]) was 68.4%, the Activity (Tobacco mosaic virus [5]) was 47.5% and the Activity (Tobacco mosaic virus [6]) was 48.7%.

`COc1cc2c3c(c4cc(OC)c(OC)cc4c2cc1OC)CN1CCC[C@@H]1C3` [TYLOPHORINE] gave an Activity (Tobacco mosaic virus [1]) of 57.7%, an Activity (Tobacco mosaic virus [2]) of 65.9% and an Activity (Tobacco mosaic virus [3]) of 56.4%. The Activity (Tobacco mosaic virus [4]) was 62.6%, the Activity (Tobacco mosaic virus [5]) was 37.9% and the Activity (Tobacco mosaic virus [6]) was 53.3%.
